# Measurements taken from PubChem BioAssay (NCI).
#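 1) Cells in 96-well plates. 2) Compound, 48 h, 5 concentrations. 3) Linear interpolation between surrounding doses. 4) Unreached endpoint = highest concentration. Abbreviation: GI50, concentration required for 50% inhibition of growth. At the TGI there is no net growth.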
# Tests used:
# Assay in all cases: NCI tumour cell line growth inhibition, 48 h
# MDA-MB-435 = system: MDA-MB-435
# HCT-116 colon = system: HCT-116 colon
# UACC-257 melanoma = system: UACC-257 melanoma
# U251 CNS = system: U251 CNS
# SF-295 CNS = system: SF-295 CNS
# EKVX NSCLC = system: EKVX NSCLC
# SK-MEL-28 melanoma = system: SK-MEL-28 melanoma
# NCI-H226 lung = system: NCI-H226 lung
# SR leukemia = system: SR leukemia
# 786-0 renal = system: 786-0 renal
# SF-539 CNS = system: SF-539 CNS
# DU-145 prostate = system: DU-145 prostate
# HOP-62 NSCLC = system: HOP-62 NSCLC
# UO-31 renal = system: UO-31 renal
# OVCAR-4 ovarian = system: OVCAR-4 ovarian
# A549 NSCLC = system: A549 NSCLC
# HCC-2998 colon = system: HCC-2998 colon
# SK-OV-3 ovarian = system: SK-OV-3 ovarian
# MCF7 breast = system: MCF7 breast
# MALME-3M melanoma = system: MALME-3M melanoma
# MOLT-4 leukemia = system: MOLT-4 leukemia
# HCT-15 colon = system: HCT-15 colon
# NCI/ADR-RES ovarian = system: NCI/ADR-RES ovarian
# MDA-MB-231 breast = system: MDA-MB-231 breast
# NCI-H23 lung = system: NCI-H23 lung
# HL-60(TB) leukemia = system: HL-60(TB) leukemia
# LOX IMVI melanoma = system: LOX IMVI melanoma
# PC-3 prostate = system: PC-3 prostate
structure (smiles),measurement,setting,value
O=C1C2=C(C(=O)c3c(O)ccc(O)c31)N(c1ccc(N3CCOCC3)nc1)Cc1ccccc1O2,GI50,MDA-MB-435,321 nM
same,TGI,MDA-MB-435,1050 nM
same,GI50,HCT-116 colon,96.6 nM
same,TGI,HCT-116 colon,332 nM
same,GI50,UACC-257 melanoma,556 nM
same,TGI,UACC-257 melanoma,1520 nM
same,GI50,U251 CNS,603 nM
same,TGI,U251 CNS,2210 nM
same,GI50,SF-295 CNS,2010 nM
same,TGI,SF-295 CNS,4630 nM
same,GI50,EKVX NSCLC,270 nM
same,TGI,EKVX NSCLC,1670 nM
same,GI50,SK-MEL-28 melanoma,275 nM
same,TGI,SK-MEL-28 melanoma,785 nM
same,GI50,NCI-H226 lung,1910 nM
same,TGI,NCI-H226 lung,7810 nM
same,GI50,SR leukemia,108 nM
same,TGI,SR leukemia,> 100000 nM
same,GI50,786-0 renal,206 nM
same,TGI,786-0 renal,450 nM
same,GI50,SF-539 CNS,276 nM
same,TGI,SF-539 CNS,944 nM
same,GI50,DU-145 prostate,326 nM
same,TGI,DU-145 prostate,1030 nM
same,GI50,HOP-62 NSCLC,1520 nM
same,TGI,HOP-62 NSCLC,3970 nM
same,GI50,UO-31 renal,131 nM
same,TGI,UO-31 renal,429 nM
same,GI50,OVCAR-4 ovarian,282 nM
same,TGI,OVCAR-4 ovarian,1050 nM
same,GI50,A549 NSCLC,2880 nM
same,TGI,A549 NSCLC,9110 nM
same,GI50,HCC-2998 colon,1560 nM
same,TGI,HCC-2998 colon,2990 nM
same,GI50,SK-OV-3 ovarian,2890 nM
same,TGI,SK-OV-3 ovarian,11800 nM
same,GI50,MCF7 breast,161 nM
same,TGI,MCF7 breast,658 nM
same,GI50,MALME-3M melanoma,134 nM
same,TGI,MALME-3M melanoma,418 nM
same,GI50,MOLT-4 leukemia,87.2 nM
same,GI50,HCT-15 colon,205 nM
same,TGI,HCT-15 colon,622 nM
same,GI50,NCI/ADR-RES ovarian,401 nM
same,TGI,NCI/ADR-RES ovarian,13000 nM
same,GI50,MDA-MB-231 breast,243 nM
same,TGI,MDA-MB-231 breast,814 nM
same,GI50,NCI-H23 lung,421 nM
same,TGI,NCI-H23 lung,1880 nM
same,GI50,HL-60(TB) leukemia,170 nM
same,TGI,HL-60(TB) leukemia,616 nM
same,GI50,LOX IMVI melanoma,188 nM
same,TGI,LOX IMVI melanoma,517 nM
same,GI50,PC-3 prostate,387 nM
same,TGI,PC-3 prostate,1890 nM
